# Results reported in patent publication US5458814A, “Substituted naphthopyrans” (Transitions Optical, Inc., priority 1993, dated 1995).
# Experiment: Photochromic response on optical bench (lambda max, sensitivity, saturation optical density, bleach rate) of naphthopyrans imbibed into test square polymerizates
# Assay type: physicochemical
# Conditions: for BLEACH RATE T1/2: time for absorbance to reach one half the highest absorbance after removal of activating light, 75° F., 23.9° C.; for Δ OD @ SATURATION: UV exposure continued for 20 minutes; for Δ OD @ SATURATION / Δ OD/Min SENSITIVITY: diethylene glycol bis(allyl carbonate), 75° F. (23.9° C.); for Δ OD/Min SENSITIVITY: first five (5) seconds of UV exposure, expressed on a per minute basis; for LAMBDA MAX of the activated (colored) form in the visible spectrum: imbibed into diethylene glycol bis(allyl carbonate) composition
# Procedure: Testing was done with selected photochromic naphthopyrans incorporated into test square polymerizates by one of two different imbibition processes. The test square polymerizates were prepared from a diethylene glycol bis(allyl carbonate) composition and measured 1/8 inch (0.3 centimeters)×2 inches (5.1 centimeters)×2 inches (5.1 centimeters). In one of the imbibition processes, the photochromic naphthopyran was dissolved to form a 10 weight percent solution in a 1:9 mixture of ethyl cellulose:toluene. The solution was then spin coated onto the test squares and allowed to dry. […] After cooling, the ethyl cellulose/toluene resin film was removed from the test squares by washing with acetone.
# Alternatively, the test squares were imbibed by the following procedure. Each naphthopyran was dissolved into toluene to form a four (4) weight percent solution of the compound. A piece of No. 4 Whatman filter paper was saturated with the naphthopyran toluene solution and allowed to air dry. The dried filter paper was placed on one side of the test square. A piece of untreated filter paper was placed on the other side of the polymeric test square and the resulting sandwich was placed between two flat aluminum metal plates. […] After cooling, the test squares were washed with acetone.
# The photochromic squares were tested for photochromic response rates on an optical bench. […] The bench was fitted with a 150 watt Xenon arc lamp, a remote controlled shutter, a copper sulfate bath acting as a heat sink for the arc lamp, a Schott WG-320 nm cut-off filter which removes short wavelength radiation; neutral density filter(s) and a sample holder in which the square to be tested was inserted. A collimated beam of light from a tungsten lamp was passed through the square at a small angle normal to the square. After passing through the square, the light from the tungsten lamp was directed through a photopic filter attached to a detector. The photopic filter passes wavelengths such that the detector mimics the response of the human eye. The output signals from the detector(s) were processed by a radiometer.
# Change in optical density (ΔOD) was determined by inserting an imbibed square in the bleached state into the sample holder, adjusting the transmittance scale to 100%, opening the shutter from the Xenon lamp to provide ultraviolet radiation to change the imbibed square from the bleached state to an activated (i.e., darkened) state, measuring the transmittance in the activated state, and calculating the change in optical density according to the formula ΔOD=log(100% Ta) where % Ta is the percent transmittance in the activated state and the logarithm is to the base 10.
# The ΔOD/Min, which represents the sensitivity of the photochromic compound's response to UV light, was measured over the first five (5) seconds of UV exposure, then expressed on a per minute basis. The saturation optical density (OD) was taken under identical conditions as the ΔOD/Min, except UV exposure was continued for 20 minutes for the examples in Table 1. The lambda max reported in Table 1 is the wavelength in the visible spectrum at which the maximum absorption of the activated (colored) form of the photochromic compound in a diethylene glycol bis(allyl carbonate) composition occurs.
BLEACH RATE T1/2 (Table 2 comparison) [min],SMILES,BLEACH RATE T1/2 (Table 1) [min],Δ OD @ SATURATION,Δ OD/Min SENSITIVITY,LAMBDA MAX of the activated (colored) form in the visible spectrum [nm]
> 30,"C1=CC(c2ccccc2)(c2ccccc2)Oc2c1ccc1ccccc21 [Comparative Example 1, 2,2-diphenyl-[2H]-naphtho[1,2-b]pyran, reference compound]",,,,
10.7,"Cc1cc2ccccc2c2c1C=CC(c1ccccc1)(c1ccccc1)O2 [Comparative Example 2, 2,2-diphenyl-5-methyl-[2H]-naphtho[1,2-b]pyran, reference compound]",,,,
3.75,"C1=CC2(Oc3c1ccc1ccccc31)C1CC3CC(C1)CC2C3 (centres unmarked) [Comparative Example 3, 2,2-spiroadamantylene-[2H]-naphtho[1,2-b]pyran, reference compound]",,,,
> 30,"COc1ccc(C2(C(C)(C)C)C=Cc3ccc4ccccc4c3O2)cc1 (centres unmarked) [Comparative Example 4, 2-(4-methoxyphenyl)-2-t-butyl-[2H]naphtho[1,2-b]pyran, reference compound]",,,,
,"COC(=O)c1c2c(c3ccccc3c1O)OC(c1ccc(OC)cc1)(c1ccc(OC)cc1)C=C2 [Example 1, 2,2-bis(4-methoxyphenyl)-5-methoxycarbonyl-6-hydroxy-[2H]-naphtho[1,2-b]pyran]",3.92,0.18,0.47 Δ OD/Min,497
,"COC(=O)c1c2c(c3ccccc3c1OC)OC(c1ccc(OC)cc1)(c1ccc(OC)cc1)C=C2 [Example 2, 2,2-bis(4-methoxyphenyl)-5-methoxycarbonyl-6-methoxy-[2H]-naphtho[1,2-b]pyran]",5.08,0.48,0.81 Δ OD/Min,510
,"CCOC(=O)COc1c(C(=O)OC)c2c(c3ccccc13)OC(c1ccc(OC)cc1)(c1ccc(OC)cc1)C=C2 [Example 3, 2,2-bis(4-methoxyphenyl)-5-methoxycarbonyl-6-ethoxycarbonylmethoxy-[2H]-naphtho[1,2-b]pyran]",3.52,0.44,0.79 Δ OD/Min,508
,"COC(=O)c1c2c(c3ccccc3c1OCC#N)OC(c1ccccc1)(c1ccc(OC)cc1)C=C2 (centres unmarked) [Example 5, 2-(4-methoxyphenyl)-2-phenyl-5-methoxycarbonyl-6-(cyanomethoxy)-[2H]-naphtho [1,2-b]pyran]",,,,494
,"COC(=O)Oc1c(C(=O)OC)c2c(c3ccccc13)OC(c1ccc(C)cc1)(c1ccc(C)cc1)C=C2 [Example 6, 2,2-bis(4-methylphenyl)-5-methoxycarbonyl-6-(methoxycarbonyloxy)-[2H]-naphtho[1,2-b]pyran]",1.67,0.17,0.32 Δ OD/Min,482
,"COC(=O)c1c2c(c3ccccc3c1C)OC(c1ccc(OC)cc1)(c1ccc(OC)cc1)C=C2 [Example 8, 2,2-bis(4-methoxyphenyl)-5-methoxycarbonyl-6-methyl-[2H]-naphtho[1,2-b]pyran]",3.62,0.42,0.63 Δ OD/Min,476
,"COC(=O)c1c2c(c3cc(OC)ccc3c1C)OC(c1ccc(OC)cc1)(c1ccc(OC)cc1)C=C2 [Example 9, 2,2-bis(4-methoxyphenyl)-5-methoxycarbonyl-6-methyl-9-methoxy-[2H]-naphtho[1,2-b]pyran]",6.27,0.58,0.58 Δ OD/Min,522
,"CCC(=O)Oc1c(C(=O)OC)c2c(c3ccccc13)OC(c1ccccc1)(c1ccccc1)C=C2 [Example 10, 2,2-diphenyl-5-methoxycarbonyl-6-(propionyloxy)-[2H]-naphtho[1,2-b]pyran]",4.28,0.19,0.39 Δ OD/Min,470
,"COC(=O)c1c2c(c3ccccc3c1OC(C)=O)OC(c1cccc(C(F)(F)F)c1)(c1cccc(C(F)(F)F)c1)C=C2 [Example 11, 2,2-bis(3-trifluoromethylphenyl)-5-methoxycarbonyl-6-acetoxy-[2H]-naphtho[1,2-b]pyran]",3.63,0.08,0.15 Δ OD/Min,455
,"CCOC(=O)COc1c(C(=O)OC)c2c(c3ccccc13)OC(c1ccc(OC)cc1)(c1ccc3c(c1)CC(C)O3)C=C2 (centres unmarked) [Example 12, 2-(4-methoxyphenyl)-2-(2-methyl-2,3-dihydrobenzofur-5-yl)-5-methoxycarbonyl-6-ethoxycarbonylmethoxy-[2H]-naphtho[1,2-b]pyran]",4.6,0.53,0.83 Δ OD/Min,517
1.63,"COC(=O)c1c2c(c3ccccc3c1OC)OC1(C=C2)C2CC3CC(C2)CC1C3 (centres unmarked) [Example 13, 2,2'-spiroadamantylene-5-methoxycarbonyl-6-methoxy-[2H]-naphtho[1,2-b]pyran]",,,,

SMILES,BLEACH RATE T1/2 (Table 2 comparison) [min],BLEACH RATE T1/2 (Table 1) [min],Δ OD @ SATURATION,Δ OD/Min SENSITIVITY,LAMBDA MAX of the activated (colored) form in the visible spectrum [nm]
"COC(=O)c1c2c(c3ccccc3c1OC(C)=O)OC(c1ccc(OC)cc1)(C(C)(C)C)C=C2 (centres unmarked) [Example 4, 2-(4-methoxyphenyl)-2-t-butyl-5-methoxycarbonyl-6-acetoxy-[2H]naphtho[1,2-b]pyran]",7.22,,,,
"COC(=O)c1c2c(c3ccccc3c1OC(C)=O)OC(c1ccccc1)(c1ccccc1)C=C2 [Example 7, 2,2-diphenyl-5-methoxycarbonyl-6-acetoxy-[2H]-naphtho[1,2-b]pyran]",3.67,,,,
